Laboratory results as given in paper PMC5451472, “Novel Locally Active Estrogens Accelerate Cutaneous Wound Healing-Part 2” (Scientific Reports, 2017).
pEC50: −log10 of the molar value.

Experiments:
ERs = molecular target: T1, ERs (Homo sapiens, UniProt P03372); experiment: ER transactivation assay in ERE-Luc B17 cells (luciferase reporter); format: cell-based; settings: for pEC50: ERE-Luc B17 cells (MCF-7 clone), 24 h, luciferase activity, sigmoidal dose-response, read-out: EC50 (transactivation potency); for fold induction at 10 µM / activity on ERs: ERE-Luc B17 cells; for fold induction at 10 µM: 10^-5 M of compound respect to vehicle
T1 construct: endogenous in cells; host or cells: MCF-7, clone ERE-Luc B17 (only the luciferase reporter is transfected)
T1 sequence (P03372 1-595): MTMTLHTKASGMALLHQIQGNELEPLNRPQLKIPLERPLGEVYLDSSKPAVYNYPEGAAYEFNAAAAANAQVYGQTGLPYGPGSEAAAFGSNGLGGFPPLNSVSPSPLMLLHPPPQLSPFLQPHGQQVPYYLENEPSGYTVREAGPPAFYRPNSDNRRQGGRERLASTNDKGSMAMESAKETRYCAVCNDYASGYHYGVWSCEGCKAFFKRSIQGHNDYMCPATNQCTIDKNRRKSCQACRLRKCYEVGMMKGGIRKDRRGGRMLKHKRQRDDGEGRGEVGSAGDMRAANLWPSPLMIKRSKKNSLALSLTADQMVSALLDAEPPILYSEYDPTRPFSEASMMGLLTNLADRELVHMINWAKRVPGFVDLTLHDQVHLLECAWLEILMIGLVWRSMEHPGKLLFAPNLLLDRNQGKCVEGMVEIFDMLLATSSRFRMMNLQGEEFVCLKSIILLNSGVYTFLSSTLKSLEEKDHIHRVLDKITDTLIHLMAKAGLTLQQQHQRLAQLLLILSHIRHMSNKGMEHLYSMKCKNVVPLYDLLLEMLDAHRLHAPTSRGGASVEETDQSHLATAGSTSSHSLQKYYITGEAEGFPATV
Experimental: The ability of the novel compounds to transcriptionally activate ERs was tested in ERE-Luc B 17 cells, a clone of the breast cancer cell line MCF-7 stably transfected with a reporter constituted by the luciferase gene driven by an estrogen-regulated synthetic promoter previously generated and tested in our laboratories.
Cells were split twice a week by seeding 2 × 10^6 cells in 100 mm diameter Petri (Corning) dishes.
After 24 h cells were rinsed once with PBS before preparing the protein extract for the determination of luciferase content. Each experiment was carried out in duplicate.
Luciferase enzymatic activity was measured in cells or selected tissue homogenates by a luminometer (Glomax™96 microplate luminometer; Promega) using Promega standard luciferin (Beetle Luciferin Potassium Salt) and expressed as Relative Light Units over 10 sec/μg protein (RLU/μg protein). Proteins concentrations were measured by Bradford.
Analysis of transactivation data and calculation of EC50 values were performed by means of sigmoidal dose-response (variable slope) using PRISM5 software (GraphPad Software Inc.).

[1] = test system: ER transcriptional activity; experiment: In vivo BLI time course in wounded ovariectomized ERE-Luc mice, compounds s.c. around the wound; parameters: species or system mouse
Experimental: To study the estrogenic and healing properties of the two compounds, we generated a wound in the ERE-Luc mouse model and tested the activity of the two compounds administered s.c. in the area surrounding the wound as described in the methodology section.
Each group was composed of 4 ERE-Luc females’ mice ovariectomized 2 weeks’ prior the experiment to avoid any interference due to endogenous estrogens. Photon emission was measured in the living animals three times: at 0, 3 and 6 h after s.c. injection.
(§1) ERE-Luc and MITO-Luc mice were ovariectomized at two months of age; the experiment was done 2 weeks after surgery to allow the animals to recover and to decrease the levels of circulating estrogens. The animals were fed ad libitum with a special estrogen free diet (AIN 93 M, Mucedola) (Ciana et al. Endocrinology 2005) and housed in individually ventilated plastic cages within a temperature range of 22–25 °C, relative humidity of 50% ± 10% and under an automatic cycle of 12 h light/dark (lights on at 07:00 am). All animal experimentation was carried out in accordance with the ARRIVE and European Guidelines for Animal Care. All animal experiments were approved by the Italian Ministry of Research and University and controlled by a Departmental panel of experts. For the correct dosage of the compounds, the body weight of the animals (on empty stomach, fasted for at least 12–14 hours) was determined immediately before the treatment.
(§2) Ovariectomy was carried out as previously described. Wound healing was done after shaving by VEET depilatory cream a day before the treatment. The 1 cm full-thickness incisional wound was made through the skin and panniculus carnosus muscle of ovariectomized MITO-luc using a surgical scalpel (blade n°10, carbon steel, Swann-Morton Ltd). Round full-thickness wounds were done by cutting out a section of full-thickness skin (around 9 mm in diameter) using fine scissors on the dorsal skin of the isoflurane-anesthetized animal. For in vivo treatment the compounds were administered onto the subcutaneous area surrounding the wound by multiple subcutaneous injection, immediately after the generation of the wound.
For the semi-quantitative analysis of in vivo photon emission, animals were injected i.p. with 80 mg/kg of luciferin (Beetle Luciferin Potassium Salt; Promega, Madison, WI, USA) 15 min prior the imaging session. For the imaging, mice were anaesthetized using isofluorane (Isofluorane-Vet; Merial, Lyon, France) and kept under anesthesia during the 5 minutes of the session carried out with a CCD camera: both ventral and dorsal acquisition (Xenogen IVIS Lumina System; Caliper, PerkinElmer company). Photon emission in selected body areas was measured using the Living Image Software (Caliper, PerkinElmer company). The analysis was done in ventral view: whole body, thymus, hepatic area, abdomen, limbs, vagina and in dorsal view in wound area and expressed as photon/second/cm2/steradiant (p/s/cm2/sr).

[2] = parameters: method as in PMID 19718805; settings: cited from earlier work
MITO-Luc mice [3] = experiment: Macrophage count (Iba1 immunohistochemistry) around the wound site; format: in vivo, mouse; settings: 20 µg/kg s.c., 72 hours after treatment
Experimental: To better understand whether the healing effect of 1e could be attributed to its anti-inflammatory action, at the end of in vivo imaging (72 hours after treatments) the tissue surrounding the wound was dissected and subjected immunohistochemical analysis using the pan macrophage marker Iba1. […] This observation confirmed that the estrogenic compounds were able to regulate the immune response at local level.
In particular, the criteria for the assignation of granulations value are: 1 = wound bed partially covered with granulation tissue; 2 = thin granulation over the whole wound bed; 3 = thick granulation over the whole wound bed. Evaluation of macrophages was done through a specific antibody and digital image analysis: 4 µm sections from each wound healing sample were immunostained with primary rabbit […] antibody against Iba1 antigen (Wako; #019-19741) to assess the number of macrophages.
The number of positive cells were counted using the ImageJ analysis program (http://rsb.info.nih.gov/ij/) in 400x microscopic fields selected at the periphery of the wound area.

ERE-Luc mice = experiment: Uterus weight of ERE-Luc mice; format: in vivo, mouse; settings: 20 µg/kg s.c., 6 h after treatment
Description: The final study aiming at investigating the systemic effect of the NCE was done by measuring the uterus weight of all treated animal as the golden standard for the quantitative measure of estrogenic compounds.

[4] = test system: MITO-Luc mice (reporter of mitosis); experiment: Proliferation in the wound area, in vivo BLI of MITO-Luc mice; parameters: species or system mouse
Description: Wound healing is a dynamic process consisting of four continuous, overlapping, and precisely programmed phases: hemostasis, inflammation, proliferation and tissue growth (proliferation) and remodeling (maturation). The healing effect of estrogens may be exerted at several levels, certainly the ability of the hormone to accelerate macrophage polarization towards the M2-reparative polarization stage plays a relevant role, however estrogens may also facilitate local cell proliferation and the formation of the granulation tissue, epithelialization, and wound contraction.
The experiments were done with the 1e compound as completely deprived of any activity on the uterus (Fig. 6). […] Photon emission was measured in the wound area at the following time: 0, 24, 48 and 72 hours post-treatment.
as §1
as §2, with “For in vivo treatment the compounds were administered onto the subcutaneous area surrounding the wound by multiple subcutaneous injection, immediately after the generation of the wound.” left out
For the semi-quantitative analysis of in vivo photon emission, animals were injected i.p. with 80 mg/kg of luciferin (Beetle Luciferin Potassium Salt; Promega, Madison, WI, USA) 15 min prior the imaging session. […] Photon emission in selected body areas was measured using the Living Image Software (Caliper, PerkinElmer company). The analysis was done in ventral view: whole body, thymus, hepatic area, abdomen, limbs, vagina and in dorsal view in wound area and expressed as photon/second/cm2/steradiant (p/s/cm2/sr).

MITO-Luc mice [5] = experiment: Wound area measurement in MITO-Luc mice; format: in vivo, mouse; settings: 20 µg/kg s.c., 72 hours after treatment (vehicle 50%)
Experimental: To investigate to which extent the increased proliferation observed after the pharmacological treatments was functional to the healing process, we measured the size of the wound (Fig. 9a).
as §2

MITO-Luc mice [6] = experiment: Granulation tissue histoscore of round full-thickness wound at day 10; format: in vivo, mouse; settings: 20 µg/kg s.c., day 10, round wound, scale 1-3 (vehicle 0.3)
Experimental: The measure of photon emission from the wound area was done for several days after the wounding. 3 days after treatment the bioluminescent signal is highest (Fig. 10 Panel a).
as §2
At the time of euthanasia, the wounds with surrounding healthy tissue were excised, distended on a strip of hard paper and fixed in 10% buffered formalin (pH = 6). […] For histopathological examination 4 µm sections were routinely stained with Hematoxylin-Eosin (HE) and evaluated under a light microscope. The degree of re-epithelialization, the type and amount of granulation tissue and inflammation, which are the main features of wound healing, were scored separately. […]

COC(=O)CCC#C[C@]1(O)CC[C@H]2[C@@H]3CCc4cc(O)ccc4[C@H]3CC[C@@]21C [1a, 3,17β-Hydroxy-17α-(4′carbomethoxy-1′-butyn-1′-yl)estra-1,3,5-(10)-triene]
pEC50 (ERs): 6.04
fold induction at 10 µM (ERs): 4.3

CCOC(=O)CCC#C[C@]1(O)CC[C@H]2[C@@H]3CCc4cc(O)ccc4[C@H]3CC[C@@]21C [1b, 3,17β-Hydroxy-17α-(4′carbethoxy-1′-butyn-1′-yl)estra-1,3,5-(10)-triene]
activity on ERs (ERs): did not show any activity

CCCOC(=O)CCC#C[C@]1(O)CC[C@H]2[C@@H]3CCc4cc(O)ccc4[C@H]3CC[C@@]21C [1c, 3,17β-Hydroxy-17α-(4′carbopropoxy-1′-butyn-1′-yl)estra-1,3,5-(10)-triene]
pEC50 (ERs): 5.64
fold induction at 10 µM (ERs): 2.6

CC(C)OC(=O)CCC#C[C@]1(O)CC[C@H]2[C@@H]3CCc4cc(O)ccc4[C@H]3CC[C@@]21C [1d, 3,17β-Hydroxy-17α-(4′carbo-iso-propoxy-1′-butyn-1′-yl)estra-1,3,5-(10)-triene]
fold induction at 10 µM (ERs): 5

CCCCCOC(=O)CCC#C[C@]1(O)CC[C@H]2[C@@H]3CCc4cc(O)ccc4[C@H]3CC[C@@]21C [1f]
photon emission in body areas (whole body, thymus, hepatic area, abdomen, limbs, vagina) ([1]; 200 µg/kg s.c. around wound, 3 or 6 h, ovx mice): did not observe increased photon emission in any of the body areas
increase of photon emission in the wound area with respect to time 0 ([1]; 200 µg/kg s.c., 6 hours, trend): 20%

COC(=O)CCCC#C[C@]1(O)CC[C@H]2[C@@H]3CCc4cc(O)ccc4[C@H]3CC[C@@]21C [1g, 3,17β-Hydroxy-17α-(5′carbomethoxy-1′-butyn-1′-yl)estra-1,3,5-(10)-triene]
pEC50 (ERs): 6.89
fold induction at 10 µM (ERs): 2.5

CCOC(=O)CCCC#C[C@]1(O)CC[C@H]2[C@@H]3CCc4cc(O)ccc4[C@H]3CC[C@@]21C [1h]
activity on ERs (ERs): did not show any activity

CCCCC(=O)OCCC#C[C@]1(O)CC[C@H]2[C@@H]3CCc4cc(O)ccc4[C@H]3CC[C@@]21C [2e]
in vivo healing and systemic activity [2]: substantially accelerated healing without systemic activity

C[C@]12CC[C@@H]3c4ccc(O)cc4CC[C@H]3[C@@H]1CC[C@@]2(O)C#CCCCO [6a]
activity on ERs (ERs): did not show any activity

C[C@]12CC[C@@H]3c4ccc(O)cc4CC[C@H]3[C@@H]1CC[C@@H]2O [17β-estradiol, reference compound]
number of macrophages (Iba1 positive) in the wound area lower than in controls (MITO-Luc mice [3]): 44%
uterus weight higher than average weight of controls (ERE-Luc mice): 35%
average uterus weight (ERE-Luc mice; n = 4): 22.8 mg
increase of photon emission from wound ([4]; 20 µg/kg s.c. around wound, 72 h versus time 0, ovx MITO-Luc): 78%
photon emission from the wound area ([4]; 20 µg/kg s.c., 48 hours after administration): significantly increased
luciferase activity in whole body and body areas ([1]; 20 µg/kg s.c. around wound, ovx mice): induced a significant increase
increase of photon emission in the wound area with respect to vehicle-treated mice ([1]; 20 µg/kg s.c., 6 hours): 40%
wound area reduction (MITO-Luc mice [5]): 60%
Score of granulation tissue (fibrosis), histoscore mean (MITO-Luc mice [6]): 2
